Where two headings read alike, the source gives them in different places.
Tests used:
WEEV genome replicon [1] = experiment: organism not typed; assay type: cell-based; details: for IC50: read-out: IC50, inhibition of luciferase expression in WEEV replicon assay
[2] = tested on: FMV-infected BE(2)-C cells; experiment: Antiviral assay in FMV-infected BE; assay type: cell-based
WEEV genome replicon [3] = details: read-out: IC50, inhibition of luciferase expression in WEEV replicon assay; cited from earlier work

Row | SMILES | Activity in WEEV replicon assay, in words (WEEV genome replicon [1]) | Loss of potency relative to lead 2 in WEEV replicon assay (WEEV genome replicon [1]) | other results
1 | CC1(C(=O)NCCc2ccncc2)CCN(C(=O)c2cc3ccccc3n2Cc2ccc(Cl)cc2)CC1 [compound 23] | lost all activity | – | –
2 | O=C(NCCc1ccncc1)C1CCN(C(=O)c2cc3ccccc3n2Cc2ccc(Cl)cc2)CC1 [compound 2] | – | – | Enhancement of infected cell viability ([2]; 25 μM): two-fold enhancement; IC50 (WEEV genome replicon [3]): 0.53 ± 0.08 µM
3 | O=C(NCCc1ccncc1)C1CCCN(C(=O)c2cc3ccccc3n2Cc2ccc(Cl)cc2)CC1 (centres unmarked) [compound 29] | – | – | Improvement in infected cell viability versus negative control ([2]; 5 μM): nearly two-fold improvement
4 | O=C(NCCc1ccncc1)[C@H]1[C@@H]2CCN(C(=O)c3cc4ccccc4n3Cc3ccc(Cl)cc3)C[C@@H]21 [compound 26] | – | over 20 fold | –
5 | O=C(c1cc2ccccc2n1Cc1ccc(Cl)cc1)N1CCC(/C=C\CCc2ccncc2)CC1 [compound 18] | lost all activity | – | IC50 (WEEV genome replicon [1]): > 50 µM
6 | O=C(NCCc1ccncc1)C1CC2(C1)CN(C(=O)c1cc3ccccc3n1Cc1ccc(Cl)cc1)C2 [compound 28] | – | over 20 fold | –
7 | O=C(c1cc2ccccc2n1Cc1ccc(Cl)cc1)N1CCC(/C=C/CCc2ccncc2)CC1 [compound 17] | lost all activity | – | IC50 (WEEV genome replicon [1]): > 50 µM
8 | O=C(NCCc1ccncc1)C1=CCN(C(=O)c2cc3ccccc3n2Cc2ccc(Cl)cc2)CC1 [compound 22] | – | ~10 fold | –

Source: paper PMC8272561 (Bioorganic & medicinal chemistry letters, 2021)
